Read-outs that look alike come from different tables or passages of the source.
Experiments:
[1] = system: SK-MEL-28; experiment: SRB colorimetric cell growth inhibition assay, SK-MEL-28; format: cell-based; conditions: Homo sapiens, SK-MEL-28, MEL-28; for GI50: GI=growth inhibition, read-out: GI50 MEL-28; for CC50: cell killing (cytotoxic effect), read-out: LC50 MEL-28; for IC (TGI): total growth inhibition (cytostatic effect), read-out: TGI MEL-28
Outline: (§1)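 Continuous drug exposure of human cancer cells; SRB protein stain read-out; triplicate wells, mean ± SD; GI, TGI, LC computed.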

[2] = target: T1, human topoisomerase I (Homo sapiens, UniProt P11387); experiment: Topoisomerase I DNA relaxation assay (supercoiled plasmid DNA); format: biochemical; conditions: supercoiled plasmid DNA, each compound tested at 1 μM, agarose gel with ethidium bromide
T1 sequence (P11387 1-765): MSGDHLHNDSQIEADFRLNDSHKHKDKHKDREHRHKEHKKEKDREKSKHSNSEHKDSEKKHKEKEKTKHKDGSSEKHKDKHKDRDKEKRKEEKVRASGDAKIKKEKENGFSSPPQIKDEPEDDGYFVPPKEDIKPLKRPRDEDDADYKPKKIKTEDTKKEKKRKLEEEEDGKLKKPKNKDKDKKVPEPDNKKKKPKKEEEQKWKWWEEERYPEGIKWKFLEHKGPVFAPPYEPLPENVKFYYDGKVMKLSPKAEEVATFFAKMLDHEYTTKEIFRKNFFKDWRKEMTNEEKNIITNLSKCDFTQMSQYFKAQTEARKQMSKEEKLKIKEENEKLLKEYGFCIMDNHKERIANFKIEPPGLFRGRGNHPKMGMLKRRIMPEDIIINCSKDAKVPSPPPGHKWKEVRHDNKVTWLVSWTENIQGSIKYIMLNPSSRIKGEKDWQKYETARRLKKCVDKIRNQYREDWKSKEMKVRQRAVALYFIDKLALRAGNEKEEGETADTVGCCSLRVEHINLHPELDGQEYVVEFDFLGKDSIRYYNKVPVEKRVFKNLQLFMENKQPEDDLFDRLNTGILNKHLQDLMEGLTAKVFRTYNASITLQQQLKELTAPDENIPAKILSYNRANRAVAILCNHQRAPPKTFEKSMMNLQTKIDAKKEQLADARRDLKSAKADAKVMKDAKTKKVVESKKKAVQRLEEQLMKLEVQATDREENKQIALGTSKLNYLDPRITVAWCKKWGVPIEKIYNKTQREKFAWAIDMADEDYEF
Outline: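 Test compounds (1 μM each) were present during topoisomerase I relaxation of supercoiled plasmid DNA. Relaxation was assessed on ethidium bromide-stained agarose gels.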

[3] = system: LoVo; experiment: SRB colorimetric cell growth inhibition assay, LoVo; format: cell-based; conditions: Homo sapiens; for CC50: cell killing (cytotoxic effect), read-out: LC50 LOVO; for GI50: GI=growth inhibition, read-out: GI50 LOVO; for IC (TGI): total growth inhibition (cytostatic effect), read-out: TGI LOVO
Outline: as §1

[4] = system: IGROV-ET; experiment: SRB colorimetric cell growth inhibition assay, IGROV-ET (ET-743 resistant); format: cell-based; conditions: Homo sapiens, IGROV-ET; for GI50: GI=growth inhibition, read-out: GI50 IGROV-ET; for CC50: cell killing (cytotoxic effect), read-out: LC50 IGROV-ET; for IC (TGI): total growth inhibition (cytostatic effect), read-out: TGI IGROV-ET
Outline: as §1

[5] = system: PANC-1; experiment: SRB colorimetric cell growth inhibition assay, PANC-1; format: cell-based; conditions: Homo sapiens; for CC50: cell killing (cytotoxic effect), read-out: LC50 PANC-1; for IC (TGI): total growth inhibition (cytostatic effect), read-out: TGI PANC-1; for GI50: GI=growth inhibition, read-out: GI50 PANC-1
Outline: as §1

[6] = system: K-562; experiment: SRB colorimetric cell growth inhibition assay, K-562; format: cell-based; conditions: Homo sapiens, K562, K-562; for GI50: GI=growth inhibition, read-out: GI50 K-562; for CC50: cell killing (cytotoxic effect), read-out: LC50 K-562; for IC (TGI): total growth inhibition (cytostatic effect), read-out: TGI K-562
Outline: as §1

[7] = system: HT-29; experiment: SRB colorimetric cell growth inhibition assay, HT-29; format: cell-based; conditions: Homo sapiens; for CC50: cell killing (cytotoxic effect), read-out: LC50 HT-29; for GI50: GI=growth inhibition, read-out: GI50 HT-29; for IC (TGI): total growth inhibition (cytostatic effect), read-out: TGI HT-29
Outline: as §1

[8] = system: LNCaP; experiment: SRB colorimetric cell growth inhibition assay, LNCaP; format: cell-based; conditions: Homo sapiens, LNCaP, LN-caP; for GI50: GI=growth inhibition, read-out: GI50 LN-caP; for CC50: cell killing (cytotoxic effect), read-out: LC50 LN-caP; for IC (TGI): total growth inhibition (cytostatic effect), read-out: TGI LN-caP
Outline: as §1

[9] = system: SK-BR-3; experiment: SRB colorimetric cell growth inhibition assay, SK-BR-3; format: cell-based; conditions: Homo sapiens; for CC50: cell killing (cytotoxic effect), read-out: LC50 SK-BR-3; for GI50: GI=growth inhibition, read-out: GI50 SK-BR-3; for IC (TGI): total growth inhibition (cytostatic effect), read-out: TGI SK-BR-3
Outline: as §1

[10] = system: SKOV-3; experiment: SRB colorimetric cell growth inhibition assay, SKOV-3; format: cell-based; conditions: Homo sapiens
Outline: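 Growth inhibition (GI), total growth inhibition (TGI, cytostatic) and lethal concentration (LC, cytotoxic) come from an SRB-based colorimetric measure of growth and viability. Data are triplicate-well means ± SD.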

[11] = system: DU-145; experiment: SRB colorimetric cell growth inhibition assay, DU-145; format: cell-based; conditions: Homo sapiens; for CC50: cell killing (cytotoxic effect), read-out: LC50 DU-145; for GI50: GI=growth inhibition, read-out: GI50 DU-145; for IC (TGI): total growth inhibition (cytostatic effect), read-out: TGI DU-145
Outline: as §1

[12] = system: A-549; experiment: SRB colorimetric cell growth inhibition assay, A-549; format: cell-based; conditions: Homo sapiens, A549, A-549; for GI50: GI=growth inhibition, read-out: GI50 A-549; for CC50: cell killing (cytotoxic effect), read-out: LC50 A-549; for IC (TGI): total growth inhibition (cytostatic effect), read-out: TGI A-549
Outline: as §1

[13] = system: IGROV; experiment: SRB colorimetric cell growth inhibition assay, IGROV; format: cell-based
Outline: as §1

[14] = system: LoVo-Dox; experiment: SRB colorimetric cell growth inhibition assay, LoVo-Dox (MDR); format: cell-based; conditions: Homo sapiens, LOVO-DOX; for GI50: GI=growth inhibition, read-out: GI50 LOVO-DOX; for CC50: cell killing (cytotoxic effect), read-out: LC50 LOVO-DOX; for IC (TGI): total growth inhibition (cytostatic effect), read-out: TGI LOVO-DOX
Outline: as §1

[15] = Homo sapiens, IGROV; cell killing (cytotoxic effect); read-out: LC50 IGROV

Compound | GI50 [1] [nM] | CC50 [1] [µM] | IC (TGI) [1] [µM] | stimulation of DNA cleavage by topoisomerase I / inhibition of topoisomerase I (nicked DNA band) in DNA relaxation assay [2] | CC50 ([3]; LoVo) [nM] | GI50 [4] [nM] | CC50 [4] [µM] | IC (TGI) [4] [µM] | CC50 ([5]; PANC-1, PANC-1) [µM] | IC (TGI) ([5]; PANC-1, PANC-1) [µM] | GI50 [6] [nM] | CC50 [6] [µM] | IC (TGI) [6] [µM] | CC50 ([7]; HT-29, HT-29) [µM] | GI50 [8] [nM] | CC50 [8] [nM] | IC (TGI) [8] [µM] | CC50 ([9]; SK-BR-3, SK-BR-3) [µM] | CC50 ([11]; DU-145, DU-145) [µM] | GI50 [12] [nM] | other results
COc1cc(-c2c3n(c4c(=O)oc5cc(OC(=O)[C@@H](N)Cc6c[nH]c7ccccc67)c(OC)cc5c24)CCc2cc(OC(=O)[C@@H](N)Cc4c[nH]c5ccccc45)c(OC)cc2-3)ccc1OC(=O)[C@@H](N)Cc1c[nH]c2ccccc12 [Compound 24] | 1380 | 5.74 | 2.81 | inhibit topoisomerase I | 4280 | 1310 | 7.13 | 7.13 | 7.13 | 6.23 | 680 | 5.3 | 1.91 | 7.13 | 934 | 3890 | 1.91 | 5.58 | 7.13 | 1550 | GI50 ([3]; LOVO): 749 nM; IC (TGI) ([3]; LOVO): 1.78 µM; GI50 ([5]; PANC-1): 1340 nM; GI50 ([7]; HT-29): 7.13 µM; IC (TGI) ([7]; HT-29): 7.13 µM; GI50 ([9]; SK-BR-3): 653 nM; IC (TGI) ([9]; SK-BR-3): 1.93 µM; GI50 ([10]; SK-OV-3, SKOV-3, GI=growth inhibition, read-out: GI50 SKOV-3): 1670 nM; LC50 (concentration causing 50% net cell killing) ([10]; SK-OV-3, SKOV-3, cell killing (cytotoxic effect), read-out: LC50 SKOV-3): 6.9 µM; IC (TGI) ([10]; SK-OV-3, SKOV-3, total growth inhibition (cytostatic effect), read-out: TGI SKOV-3): 3.39 µM; GI50 ([11]; DU-145): 913 nM; IC (TGI) ([11]; DU-145): 2.94 µM; CC50 [12]: 7.13 µM; IC (TGI) [12]: 3.37 µM; CC50 [13, 15]: 7.13 µM; GI50 ([13]; Homo sapiens; IGROV; GI=growth inhibition; read-out: GI50 IGROV): 1230 nM; IC (TGI) ([13]; Homo sapiens; IGROV; total growth inhibition (cytostatic effect); read-out: TGI IGROV): 4.82 µM; GI50 [14]: 891 nM; CC50 [14]: 7.13 µM; IC (TGI) [14]: 3.66 µM
COc1cc(-c2c3c4cc(OC)c(OC(=O)[C@H](N)C(C)C)cc4oc(=O)c3n3ccc4cc(OC(=O)[C@H](N)C(C)C)c(OC)cc4c23)ccc1OC(=O)[C@H](N)C(C)C [Compound 17] | 51.8 | 0.766 | 0.171 | stimulated DNA cleavage by the enzyme | 816 | 162 | 8.78 | 0.544 | 8.53 | 1.52 | 53.6 | 2.5 | 0.277 | 8.78 | 132 | 599 | 0.281 | 1.22 | 2.3 | 207 | GI50 ([3]; LoVo): 216 nM; IC (TGI) ([3]; LoVo): 0.42 µM; GI50 ([5]; PANC-1, PANC-1): 206 nM; GI50 ([7]; HT-29, HT-29): 0.342 µM; IC (TGI) ([7]; HT-29, HT-29): 0.686 µM; GI50 ([9]; SK-BR-3, SK-BR-3): 80.3 nM; IC (TGI) ([9]; SK-BR-3, SK-BR-3): 0.286 µM; GI50 ([11]; DU-145, DU-145): 48.7 nM; IC (TGI) ([11]; DU-145, DU-145): 0.228 µM; CC50 [12]: 8.48 µM; IC (TGI) [12]: 0.663 µM; GI50 ([13]; Homo sapiens, IGROV; GI=growth inhibition; read-out: GI50 IGROV): 105 nM; CC50 [13, 15]: 4.93 µM; IC (TGI) ([13]; Homo sapiens, IGROV; total growth inhibition (cytostatic effect); read-out: TGI IGROV): 0.405 µM; GI50 [14]: 384 nM; CC50 [14]: 5.29 µM; IC (TGI) [14]: 1.33 µM

From patent publication US7396837B2, “Antitumoral analogs of lamellarins” (Pharma Mar, S.A.U., priority 2002, dated 2008)
